From PMC11017246, “Discovery of GLPG2737, a Potent Type 2 Corrector of CFTR for the Treatment of Cystic Fibrosis in Combination with a Potentiator and a Type 1 Co-corrector” (Journal of Medicinal Chemistry, 2024)
Where two headings read alike, the source gives them in different places.

Key:
[1] = Plasma protein binding, dog; type: in vitro ADME; conditions: for fraction unbound at 4 h, 5 μM: dog, pH 7.4, dog plasma, read-out: PPB % dog (converted)
Procedure: Plasma protein binding was determined by equilibrium dialysis using the Pierce Red Device plate with inserts (ThermoScientific). Test compound at 5 μM (0.5% DMSO) spiked in freshly thawed human, rat, mouse, or dog plasma (Bioreclamation INC, Westbury, NY, USA) was dialyzed against phosphate-buffered saline (PBS, pH 7.4) at 37 °C under shaking for 4 h. Aliquots were taken from each side of the well, and matrix matched. Proteins were precipitated with an excess of acetonitrile, samples were mixed and centrifuged, and the supernatant was analyzed by liquid chromatography–mass spectrometry/mass spectrometry (LC–MS/MS). Addition of compound peak areas in the buffer chamber and the plasma chamber was considered to be 100% compound.

[2] = system: CYP3A4; assay: CYP3A4 induction (mRNA) in human hepatocytes; type: in vitro ADME; conditions: for CYP (3A4) mRNA induction, result in words: compared with positive control rifampicin
Procedure: Cryopreserved human hepatocytes from a single donor were seeded at 0.1 × 10^6 cells/well. The next day, cells were dosed with test compound in assay medium (final test compound concentration 10 μM; final DMSO concentration 0.1%). Positive control inducer, rifampicin, for CYP3A4, was incubated alongside the test compound. Negative control wells were included where the test compound is replaced by vehicle solvent (0.1% DMSO in assay medium). Each test or control compound was dosed in triplicate at a single concentration (10 μM). The cells were exposed to the solutions for 72 h with fresh solution added every 24 h. For mRNA assessment, all media was removed from each of the wells, and the cells were washed once. The cells were lysed, and total RNA was then isolated from the hepatocyte lysates. Reverse transcription was performed, and quantitative PCR analysis was performed on the resulting cDNA, using gene-specific primer probe sets for CYP3A4 target cDNA and endogenous control. Samples were analyzed using an ABI 7900 HT real time PCR system. For mRNA assessment, relative fold mRNA expression was determined based on the threshold cycle (CT) data of target gene relative to endogenous control for each reaction and normalized to negative control using the 2-ΔΔCT method. Data were expressed as fold activation relative to the vehicle control and, as a percent, to the 10 μM rifampicin using the following formula: % of positive control = ((fold increase of the cpd relative to vehicle control – 1)/(fold increase of the rifampicin at 10 μM – 1)) × 100.

[3] = PK rat; type: in vivo; conditions: for CLu rat: unbound clearance; for clearance: read-out: CLp rat (converted); for Vd: read-out: Vss rat
Procedure: These studies were performed with naïve male Sprague–Dawley rats (Janvier France, 6–8 weeks old). Rats were dosed iv via a bolus in the tail vein with a dose level of 0.1 mg/kg or orally as a single esophageal gavage with a dose level of 5 mg/kg. For the iv route, the compound was formulated in PEG200/water (60/40; v/v). For the oral route, the compound was formulated in MC 0.5% (2/98) as a homogeneous suspension. Before the oral dosing, the animals were deprived of food for at least 12 h before compound administration until 3 h after administration. All animals had free access to the tap water. Blood samples were collected under light anesthesia and placed into tubes containing Li-heparin as an anticoagulant. Blood samples were collected up to 24 h after dosing (n = 3 rats per route). After centrifugation, the resulting plasma samples were assayed by LC-MS/MS with a nongood laboratory practice (non-GLP)-validated method. PK parameters were calculated by noncompartmental analysis using WinNonlin software (Certara, Princeton, NJ, USA).

[4] = target: T1, ΔF508 CFTR (Homo sapiens, UniProt P13569, DEL508-508); assay: TECC (transepithelial clamp circuit) in primary CF-derived HBE cells; type: cell-based; conditions: for Emax / EC50: primary ΔF508 homozygous HBE cells, 24 h incubation, with GLPG2222; for Emax: read-out: TECC HBE with GLPG2222 % max activation; for EC50: read-out: TECC HBE with GLPG2222 EC50
T1 construct: host or cells: CFBE41o- TetON cells, expression induced with doxycycline
Procedure: Bronchial epithelial cells isolated from the lungs of patients with CF homozygous for the ΔF508 CFTR mutation were obtained from McGill University (Montreal, QC, Canada) or the University of North Carolina (Chapel Hill, NC, United States). Cells were isolated from lungs obtained from donors undergoing planned transplantation. These primary cells were cultured directly on type IV collagen-coated polycarbonate Transwell supports with a diameter of 6.5 mm and pore size of 0.4 μm (Costar, #3397) for 18–25 days in an air–liquid interface, essentially as previously described for TECC.[23]
Twenty-four hours prior to the electrophysiological recording, corrector and/or potentiator compounds were added on both the apical and basolateral sides. TECC recordings were performed by using the TECC instrument developed and sold by EP Design (Bertem, Belgium). During the recording, the epithelial cells were bathed in a NaCl-Ringer solution (120 mM NaCl, 20 mM HEPES, 1.2 mM CaCl2, 1.2 mM MgCl2, 0.8 mM KH2PO4, 0.8 mM K2HPO4, 5 mM glucose, pH 7.4) on both the basolateral (640 μL) and the apical (160 μL) sides and kept at 37 °C. Corrector and potentiator compounds were readded at the same concentration used during the 24 h pretreatment. Apical amiloride was used to inhibit the endogenous ENaC currents (100 μM), while forskolin (10 μM) was applied on both the apical and basolateral sides to stimulate CFTR. Measurements were done during a 20 min time frame with recordings every 2 min. The transepithelial potential and transepithelial resistance were measured in an open circuit and transformed to Ieq using Ohm’s law. The maximal increase in Ieq (ΔIeq, the difference in current before and after forskolin or potentiator treatment) was used as a measure for the increased CFTR activity. EC50 values were generated by measuring the impact of different concentrations of compounds on ΔIeq in primary cells. For this purpose, each transwell was treated with a different compound concentration. CFTRInh-172 was added apically at 10 μM to assess the specificity of the response. Dose response data was fitted using a 3-parameter hill function of the form Response = Bottom + (Top – Bottom)/(1 + (EC50/concentration)) to determine EC50 values. Percentage efficacy was calculated using the following formula: (max response – neg control)/(C1 response – neg control).

[5] = Hepatocyte stability, human; type: in vitro ADME; conditions: for CLint scaled at 1 μM: read-out: Hep CLint,u human
Procedure: The hepatocyte stability assay was performed by incubation of test compound at 1 μM, 0.03% DMSO in modified Krebs–Henseleit buffer with suspension of pooled cryopreserved hepatocytes (BioIVT, Hicksville, NY, USA) from mouse, rat, dog, or human (BioIVT, Hicksville, NY, USA) at 0.5 million viable hepatocytes/mL. Before adding the hepatocytes (time zero) and after 10, 20, 45, 90, 120, and 180 min of incubation (n = 2) at 37 °C while gently shaking, the reaction was stopped and proteins were precipitated with an excess of acetonitrile containing an internal standard. The samples were mixed, centrifuged, and filtered, and the supernatant was analyzed by liquid chromatography–mass spectrometry/mass spectrometry (LC–MS/MS). The instrument responses (peak areas/IS peak areas) were referenced to the zero-time point samples (considered as 100%) in order to determine the percentage of compound remaining.

[6] = male, Sprague-Dawley, plasma, 0.1 mg/kg, iv
[7] = male, Sprague-Dawley, plasma, 0.1 mg/kg, iv, read-out: t1/2 iv rat (converted)
[8] = male, Sprague-Dawley, plasma, iv, 0.1 mg/kg, iv

T1 sequence (P13569 with tags, fused parts or gaps DEL508-508): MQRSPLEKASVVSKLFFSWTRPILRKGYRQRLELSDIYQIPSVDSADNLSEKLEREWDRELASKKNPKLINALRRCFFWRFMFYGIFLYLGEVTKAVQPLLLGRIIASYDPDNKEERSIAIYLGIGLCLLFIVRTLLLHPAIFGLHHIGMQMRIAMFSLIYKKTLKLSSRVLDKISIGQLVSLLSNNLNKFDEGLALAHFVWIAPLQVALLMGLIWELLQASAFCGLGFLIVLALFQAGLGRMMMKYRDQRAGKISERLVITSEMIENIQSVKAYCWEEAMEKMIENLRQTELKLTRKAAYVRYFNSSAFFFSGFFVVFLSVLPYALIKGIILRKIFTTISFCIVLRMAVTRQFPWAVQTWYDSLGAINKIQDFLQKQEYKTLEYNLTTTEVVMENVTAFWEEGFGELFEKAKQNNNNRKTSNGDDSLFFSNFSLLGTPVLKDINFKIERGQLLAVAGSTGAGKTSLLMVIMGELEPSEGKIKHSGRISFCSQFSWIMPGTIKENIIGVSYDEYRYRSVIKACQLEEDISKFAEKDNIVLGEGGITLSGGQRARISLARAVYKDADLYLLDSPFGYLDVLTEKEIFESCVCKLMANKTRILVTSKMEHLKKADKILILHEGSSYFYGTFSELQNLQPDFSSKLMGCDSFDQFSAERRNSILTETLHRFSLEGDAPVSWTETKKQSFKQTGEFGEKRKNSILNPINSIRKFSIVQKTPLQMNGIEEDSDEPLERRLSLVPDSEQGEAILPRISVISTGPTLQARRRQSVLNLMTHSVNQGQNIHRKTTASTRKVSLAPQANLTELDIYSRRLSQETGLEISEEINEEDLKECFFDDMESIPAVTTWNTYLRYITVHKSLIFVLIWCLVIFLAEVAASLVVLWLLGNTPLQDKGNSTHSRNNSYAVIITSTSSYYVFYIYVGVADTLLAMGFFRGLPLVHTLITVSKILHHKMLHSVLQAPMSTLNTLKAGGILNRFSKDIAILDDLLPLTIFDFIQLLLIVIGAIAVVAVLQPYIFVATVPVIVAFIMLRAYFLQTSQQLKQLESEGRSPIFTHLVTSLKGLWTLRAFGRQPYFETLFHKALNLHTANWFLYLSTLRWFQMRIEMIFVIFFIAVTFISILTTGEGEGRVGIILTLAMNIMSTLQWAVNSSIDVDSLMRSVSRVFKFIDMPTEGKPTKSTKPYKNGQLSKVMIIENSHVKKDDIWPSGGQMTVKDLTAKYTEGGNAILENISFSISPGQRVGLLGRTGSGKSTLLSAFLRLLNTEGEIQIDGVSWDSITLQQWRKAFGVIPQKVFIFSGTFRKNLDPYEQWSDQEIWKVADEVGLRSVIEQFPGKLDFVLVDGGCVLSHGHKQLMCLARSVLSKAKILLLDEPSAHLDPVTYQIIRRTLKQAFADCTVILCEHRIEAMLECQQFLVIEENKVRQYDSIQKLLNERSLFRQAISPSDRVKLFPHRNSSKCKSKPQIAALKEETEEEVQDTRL

Compound | PPB % dog ([1]; dog plasma) | fraction unbound at 4 h, 5 μM ([1]; plasma) | CYP induction @10 μM (mRNA) % rifampicin ([2]; data generated by AbbVie team) | CYP induction @10 μM (mRNA) % rifampicin ([2]; data generated by Galapagos) | CYP (3A4) mRNA induction, result in words [2] | CLu rat ([3]; iv) | clearance [3, 6] | half-life at 24 h [3, 7] | Vd [3, 8] | Emax [4] | EC50 [4] | CLint scaled at 1 μM ([5]; pooled cryopreserved hepatocytes in suspension) | fraction unbound at 4 h, 5 μM ([1]; dog plasma) | F (%) rat ([3]; 30 mg/kg po) | exposure versus dose ([3]; dose of 5 to 300 mg/kg) | half-life [3, 7] | increase in F508del CFTR activity ([4]; addition to the combination of potentiator GLPG1837 and C1 corrector 4) | Hepatocyte stability: %LBF human ([5]; human hepatocytes) | Hepatocyte stability: predicted hepCl human ([5]; human hepatocytes, 1 µM) | CLint scaled at 1 μM ([5]; human hepatocytes)
CN(C)S(=O)(=O)NC(=O)c1cc(N2CCC(N3CCOCC3)CC2)c2c(C3CCC3)nn(-c3ccc(F)cc3)c2n1 [Compound 51] | 98,7% | 0.01 | 45% | 24% | demonstrated CYP mRNA induction | 220 mL/min/kg | 3.17 mL/min/kg | 3.6 h | 0.81 L/kg | 371% | 0.067 µM | < 11 mL/min/kg | – | – | – | – | – | – | – | –
COC1CCN(C2CCN(c3cc(C(=O)NS(=O)(=O)N(C)C)nc4c3c(C3CCC3)nn4-c3ccc(F)cc3)CC2)CC1 [Compound 52, 3-Cyclobutyl-N-(N,N-dimethylsulfamoyl)-1-(4-fluorophenyl)-4-(4-methoxy-[1,4′-bipiperidin]-1′-yl)-1H-pyrazolo[3,4-b]pyridine-6-carboxamide] | – | – | 4% | 6% | devoid of any CYP mRNA induction liability | 333 mL/min/kg | 5.33 mL/min/kg | – | 1.38 L/kg | 467% | 0.047 µM | – | 0.025 | 69.1% | dose proportional increase in exposure | 3.45 h | 8 fold | 22 %LBF | < 4.67 mL/min/kg | < 12.8 mL/min/kg
